Laboratory results from ChEMBL document CHEMBL4364243, “Structure-activity relationships of potentiators of the antibiotic activity of clarithromycin against Escherichia coli” (2019).
In brackets after ≈: the same amount, converted by molar mass. Activity calls are given as the source filed them. The rule behind the calls is not given here. Bridge positions count the residues as written; N and C are the ends. Square brackets hold non-standard residues; d marks the D form. Peptide text beside a SMILES is read from it. * marks the point of attachment. X1 = CC[C@H](C)CCCCC(=O)*; βNA = c1ccc2cc(N*)ccc2c1; Dab = NCC[C@H](N)C(=O)O

Columns and labels:
Escherichia coli [1] = assay: Potentiation of clarithromycin-induced antibacterial activity against Escherichia coli ATCC 25922 assessed as fold reduction in clarithromycin MIC at 12.5 ug/ml incubated for 24 hrs in presence of clarithromycin; type: functional
Escherichia coli [2] = assay: Antibacterial activity against Escherichia coli ATCC 25922 incubated for 24 hrs by serial dilution method; type: functional; conditions: ATCC 25922, 24 h
Escherichia coli [3] = assay: Potentiation of clarithromycin-induced antibacterial activity against Escherichia coli ATCC 25922 assessed as clarithromycin MIC at 12.5 ug/ml incubated for 24 hrs by microtiter plate reader analysis (reference value: 64 microg/ml); type: functional; conditions: ATCC 25922, 24 h
[4] = tested on: Escherichia coli ATCC 25922; assay: Induction of outer membrane permeabilization/inhibition of AcrAB-TolC efflux pump in Escherichia coli ATCC 25922 assessed as increase in NPN uptake at 1/32 to 1/2 times MIC incubated for 10 mins in dark by fluorescence assay
Escherichia coli [5] = assay: Induction of inner membrane permeabilization in Escherichia coli ATCC 25922 assessed as increase in propidium iodide uptake at 1/32 to 1/2 times MIC by PI staining based flow cytometric analysis; type: organism-based
[6] = tested on: Escherichia coli ATCC 25922; assay: Induction of outer membrane permeabilization/inhibition of AcrAB-TolC efflux pump in Escherichia coli ATCC 25922 assessed as increase in NPN uptake incubated for 10 mins in dark by fluorescence assay
[7] = tested on: Escherichia coli ATCC 25922; assay: Inhibition of efflux pump in CCCP-pretreated Escherichia coli ATCC 25922 assessed as […] by measuring decrease in fluorescence intensity pre-incubated for 5 mins followed by glucose addition by Hoechst 33342 staining based fluorescence assay
Pseudomonas aeruginosa = assay: Potentiation of levofloxacin-induced antibacterial activity against Pseudomonas aeruginosa assessed as concentration required to decrease levofloxacin MIC by 8 fold in presence of levofloxacin; type: functional; conditions: read-out: MEC
Escherichia coli [8] = assay: Potentiation of calrithromycin-induced antibacterial activity against Escherichia coli ATCC 25922 assessed as clarithromycin MIC at 50 ug/ml incubated for 24 hrs by microtiter plate reader analysis (reference value: 64 microg/ml); type: functional; conditions: ATCC 25922, 24 h
Escherichia coli [9] = assay: Potentiation of clarithromycin-induced antibacterial activity against Escherichia coli ATCC 25922 assessed as fold reduction in clarithromycin MIC at 50 ug/ml incubated for 24 hrs in presence of clarithromycin; type: functional

Structure (SMILES) | fold change (FC) (Escherichia coli [1]) | MIC (Escherichia coli [2]) [µg/mL] | MIC (Escherichia coli [3]) [µg/mL] | further results
CN(C(=O)[C@@H](N)CCCN)C(Cc1ccccc1)Cc1ccccc1 | 2 | > 100 | 32 | 
NCC[C@H](N)CC(=O)NC(CCc1ccccc1)CCc1ccccc1 | 16 | 100 (≈ 283 µM) | 4 | 
CC[C@H](C)CCCCC(=O)N[C@@H](CCN)C(=O)N[C@H](C(=O)N[C@@H](CCN)C(=O)N[C@H]1CCNC(=O)[C@H]([C@@H](C)O)NC(=O)[C@H](CCN)NC(=O)[C@H](CCN)NC(=O)[C@H](CC(C)C)NC(=O)[C@@H](Cc2ccccc2)NC(=O)[C@H](CCN)NC1=O)[C@@H](C)O (X1-[Dab]T[Dab][Dab][Dab][dF]L[Dab][Dab]T; lactam 4-C) |  | 1.56 (≈ 1.3 µM) |  | Activity [4]: Active; Activity (Escherichia coli [5]): Active
CNCCC[C@H](N)C(=O)NC(CCc1ccccc1)CCc1ccccc1 | 1 | 100 (≈ 272 µM) | 64 | 
NC[C@@H](N)CC(=O)NC(CCc1ccccc1)CCc1ccccc1 | 1 | 200 (≈ 589 µM) | 64 | 
NCC[C@H](N)CCNC(CCc1ccccc1)CCc1ccccc1 | 32 | 100 (≈ 295 µM) | 2 | Activity [6]: Dose-dependent effect; inhibition [7]: Dose-dependent effect; Activity (Escherichia coli [5]): inactive
NC[C@@H](N)CCNC(CCc1ccccc1)CCc1ccccc1 | 2 | 100 (≈ 307 µM) | 32 | 
CN(C)CCC[C@H](N)C(=O)NC(CCc1ccccc1)CCc1ccccc1 | 1 | > 100 | 64 | 
NCCC[C@@H](N)C(=O)N[C@H](CCc1ccccc1)C(=O)Nc1cnc2ccccc2c1 |  |  |  | minimal effective concentration (Pseudomonas aeruginosa): 10 µg/mL
NCCC[C@@H](N)C(=O)NC(CCc1ccccc1)CCc1ccccc1 | 2 | > 100 | 32 | 
CC[C@H]1OC(=O)[C@H](C)[C@@H](O[C@H]2C[C@@](C)(OC)[C@@H](O)[C@H](C)O2)[C@H](C)[C@@H](O[C@@H]2O[C@H](C)C[C@H](N(C)C)[C@H]2O)[C@](C)(OC)C[C@@H](C)C(=O)[C@H](C)[C@@H](O)[C@]1(C)O [CLARITHROMYCIN] |  | 64 (≈ 85.6 µM) |  | 
N=C(N)NCCC[C@H](NC(=O)[C@@H](N)Cc1ccccc1)C(=O)Nc1ccc2ccccc2c1 [PABETAN] (H-Phe-Arg-βNA) |  | > 100 |  | minimal effective concentration (Pseudomonas aeruginosa): 10 µg/mL; MIC (Escherichia coli [8]): 16 µg/mL; fold change (FC) (Escherichia coli [9]): 4
CN(C(=O)[C@@H](N)CCCN)C(CCc1ccccc1)CCc1ccccc1 | 2 | > 100 | 32 | 
NCCC[C@H](NC(=O)[C@@H](N)Cc1ccccc1)C(=O)Nc1ccc2ccccc2c1 |  |  |  | minimal effective concentration (Pseudomonas aeruginosa): 5 µg/mL
CN1CCN(C(CCc2ccccc2)CCc2ccccc2)CC1 | 1 | > 100 | 64 | 
COc1ccc(CN2CCN(C(CCc3ccccc3)CCc3ccccc3)CC2)cc1 | 1 | > 100 | 64 | 
NCCC[C@H](N)C(=O)NC(c1ccccc1)c1ccccc1 | 1 | > 100 | 64 | 
NCCC[C@@H](N)C(=O)N[C@H](CCc1ccccc1)COc1ccc(Cl)cc1 |  |  |  | minimal effective concentration (Pseudomonas aeruginosa): 5 µg/mL
NCCC[C@H](N)CNC(CCc1ccccc1)CCc1ccccc1 | 8 | 25 (≈ 73.6 µM) | 8 | 
NCC[C@H](N)CNC(CCc1ccccc1)CCc1ccccc1 | 4 | 100 (≈ 307 µM) | 16 | 
NCCC[C@@H](N)C(=O)N[C@H](CCc1ccccc1)C(=O)Nc1ncc(C(=O)Nc2cnc3ccccc3c2)o1 |  |  |  | minimal effective concentration (Pseudomonas aeruginosa): 5 µg/mL
NCCC[C@H](N)C(=O)NC(Cc1ccccc1)Cc1ccccc1 | 2 | > 100 | 32 | 
NC[C@@H](N)CCC(=O)NC(CCc1ccccc1)CCc1ccccc1 | 2 | 100 (≈ 283 µM) | 32 | 
NCC[C@H](N)C(=O)NC(CCc1ccccc1)CCc1ccccc1 | 2 | 100 (≈ 295 µM) | 32 | 
NC[C@@H](N)CCCNC(CCc1ccccc1)CCc1ccccc1 | 16 | 25 (≈ 73.6 µM) | 4 | 
N=C(N)NCCC[C@H](N)C(=O)NC(CCc1ccccc1)CCc1ccccc1 | 2 | > 100 | 32 | 
NCCC[C@@H](N)C(=O)N[C@H](CCc1ccccc1)CSc1ccc(Cl)cc1 |  |  |  | minimal effective concentration (Pseudomonas aeruginosa): 1.25 µg/mL
CN(C(=O)[C@@H](N)CCCN)C(c1ccccc1)c1ccccc1 | 2 | > 100 | 32 | 
NCCC[C@H](N)C(=O)NC(CCc1ccccc1)CCc1ccccc1 | 4 | > 100 | 16 | 
